Data as given in patent US9115093B2, “Substituted bicyclic dihydropyrimidinones and their use as inhibitors of neutrophil elastase activity” (Boehringer Ingelheim International GmbH, priority 2013, dated 2015).

Molecular target: T1, neutrophil elastase (Homo sapiens, UniProt P08246)
T1 sequence (P08246 30-247 limits assumed): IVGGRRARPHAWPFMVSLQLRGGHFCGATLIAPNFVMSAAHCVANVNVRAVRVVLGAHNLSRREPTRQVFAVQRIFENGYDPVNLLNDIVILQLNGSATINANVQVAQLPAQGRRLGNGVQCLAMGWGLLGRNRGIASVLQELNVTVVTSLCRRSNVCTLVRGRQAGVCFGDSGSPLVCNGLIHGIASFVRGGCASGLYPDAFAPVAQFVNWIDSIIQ
Assay: Human Neutrophil Elastase Assay
Type: biochemical
Set-up: purchased Calbiochem 324681
Settings: substrate MeOSuc-Ala-Ala-Pro-Val-AMC, pH 7.5, room temperature
Protocol: Human Neutrophil Elastase Assay
Materials: Human neutrophil elastase was purchased from Calbiochem (Cat.No.: 324681) and the elastase substrate MeOSuc-Ala-Ala-Pro-Val-AMC from Bachem (Cat.No.: I-1270). All other materials were of the highest grade commercially available.
The following buffers were used: Compound buffer: 100 mM Tris, 500 mM NaCl, adjusted to pH 7.5; Assay buffer: 100 mM Tris, 500 mM NaCl, adjusted to pH 7.5, containing 0.01% BSA.
Assay conditions: Test compounds were prediluted in DMSO and subsequently in compound buffer (5% DMSO final). 5 μL of these compound dilutions were mixed with 10 μl Neutrophil elastase (9 ng/ml in assay buffer) in a black 384 well OptiPlate (Perkin Elmer, Cat No.: 6007270) and incubated for 15 min at room temperature. Subsequently 10 μL substrate solution in assay buffer were added (250 nM final concentration) and the plates were incubated for 60 min at room temperature. After inactivation of the enzyme, fluorescence intensities were measured at 380 nm excitation and 460 nm emission wavelengths.
Each plate contains wells with a high value control (DMSO+enzyme+substrate) and wells with a low value control (DMSO+inactivated enzyme+substrate). IC50 values were estimated using a sigmoidal concentration response curve with variable slope. Means of low values were taken as 0%, means of high values as 100%.

IC50 [nM]	SMILES
< 1	N#Cc1ccc(C2C3=C(CCCC3=O)N(c3cccc(C(F)(F)F)c3)C(=O)N2C(=O)NC2CCOCC2)cc1 (centres unmarked) [Example 70.14]
3.4	CS(=O)(=O)CS(=O)(=O)N1C(=O)N(c2cccc(C(F)(F)F)c2)C2=C(C(=O)CCC2)C1c1ccc(C#N)cc1 (centres unmarked) [Example 44.9]
34.9	N#Cc1ccc(C2C3=C(CCCC3=O)N(c3cccc(C(F)(F)F)c3)C(=O)N2S(=O)(=O)c2ccccc2)cc1 (centres unmarked) [Example 44.5]
1.4	N#Cc1ccc(C2C3=C(CCCC3=O)N(c3cccc(C(F)(F)F)c3)C(=O)N2C(=O)NCC2(O)CC2)cc1 (centres unmarked) [Example 70.7]

The next lines start with the molecule.

SMILES	IC50 [nM]
CN(C)CCCN(C)C(=O)CN1C(=O)N(c2cccc(C(F)(F)F)c2)C2=C(C(=O)CCC2)C1c1ccc(C#N)cc1 (centres unmarked) [Example 36.43]	12.1
COCCCN1C(=O)N(c2cccc(C(F)(F)F)c2)C2=C(C(=O)CCC2)C1c1ccc(C#N)cc1 (centres unmarked) [Example 24, 4-(1-(3-(Trifluoromethyl)phenyl)-3-(3-methoxypropyl)-2,5-dioxo-1,2,3,4,5,6,7,8-octahydroquinazolin-4-yl)benzonitrile]	6.4
N#Cc1ccc(C2C3=C(CCCC3=O)N(c3cccc(C(F)(F)F)c3)C(=O)N2C(=O)NCC2CCC(=O)N2)cc1 (centres unmarked) [Example 39.17]	< 1
N#Cc1ccc(C2C3=C(CCCC3=O)N(c3cccc(C(F)(F)F)c3)C(=O)N2CC(=O)N2CC(=O)N3CCCCC3C2)cc1 (centres unmarked) [Example 36.73]	35.5
N#Cc1ccc(C2NC(=O)N(c3cccc(C(F)F)c3)C3=C2C(=O)CCC3)cc1 (centres unmarked) [Example 17, 4-(1-(3-(Difluoromethyl)phenyl)-2,5-dioxo-1,2,3,4,5,6,7,8-octahydroquinazolin-4-yl)-benzonitrile]	23.2
CC1CN(C(=O)CN2C(=O)N(c3cccc(C(F)(F)F)c3)C3=C(C(=O)CCC3)C2c2ccc(C#N)cc2)CC1C (centres unmarked) [Example 36.18]	4
N#Cc1ccc(C2C3=C(CCCC3=O)N(c3cccc(C(F)(F)F)c3)C(=O)N2S(=O)(=O)c2csc(C(=O)O)c2)cc1 (centres unmarked) [Example 46, 4-(4-(4-Cyanophenyl)-2,5-dioxo-1-(3-(trifluoromethyl)phenyl)-1,2,5,6,7,8-hexahydroquinazolin-3(4H)-ylsulfonyl)thiophene-2-carboxylic acid]	21.5
Cc1cc(C#N)ccc1C1C2=C(CCCC2=O)N(c2cccc(C(F)(F)F)c2)C(=O)N1C (centres unmarked) [Example 63, 3-Methyl-4-(3-methyl-2,5-dioxo-1-(3-(trifluoromethyl)phenyl)-1,2,3,4,5,6,7,8-octahydroquinazolin-4-yl)benzonitrile]	7.9
N#Cc1ccc(C2C3=C(CCCC3=O)N(c3cccc(C(F)(F)F)c3)C(=O)N2CC(=O)N2Cc3cccnc3C2)cc1 (centres unmarked) [Example 36.46]	1.2
Cc1cc(C#N)ccc1C1NC(=O)N(c2cccc(C(F)(F)F)c2)C2=C1C(=O)CCC2 (centres unmarked) [Example 55, 4-(2,5-Dioxo-1-(3-(trifluoromethyl)phenyl)-1,2,3,4,5,6,7,8-octahydroquinazolin-4-yl)-3-methylbenzonitrile]	18.7
CS(=O)(=O)c1cc(C#N)ccc1[C@@H]1C2=C(CCCC2=O)N(c2cccc(C(F)(F)F)c2)C(=O)N1C(=O)NC1COC1 [Example 75.5]	< 1
N#Cc1ccc(C2C3=C(CCCC3=O)N(c3cccc(C(F)(F)F)c3)C(=O)N2CC(=O)NCCn2cccn2)cc1 (centres unmarked) [Example 36.32]	14
N#Cc1ccc(C2NC(=O)N(c3cccc(C(F)(F)F)c3)C3=C2C(=O)CCC3)c(F)c1 (centres unmarked) [Example 52, 4-(2,5-Dioxo-1-(3-(trifluoromethyl)phenyl)-1,2,3,4,5,6,7,8-octahydroquinazolin-4-yl)-3-fluorobenzonitrile]	26.7
N#Cc1ccc(C2C3=C(CCCC3=O)N(c3cccc(C(F)(F)F)c3)C(=O)N2CC(=O)NCCN2CCOCC2)cc1 (centres unmarked) [Example 36.63]	13.9
N#Cc1ccc(C2C3=C(CCCC3=O)N(c3cccc(C(F)(F)F)c3)C(=O)N2CC(=O)NCCN2CCCC2=O)cc1 (centres unmarked) [Example 36.58]	10
N#Cc1ccc(C2C3=C(CCCC3=O)N(c3cccc(C(F)(F)F)c3)C(=O)N2CC(=O)N2CCC(F)C2)cc1 (centres unmarked) [Example 36.11]	5.1
